Measured values: patent US8642770B2, “Indole derivative” (Takeda Pharmaceutical Company Limited, priority 2010, dated 2014)
Where a name gives a salt, the structure may show the parent alone.

Compound | melting point [°C]
Cc1c(CNC2CCCC2)[nH]c2c(C)c(NC(=O)c3ccc(OC[C@@H]4CCCO4)cc3)ccc12 [Example 100, N-{2-[(cyclopentylamino)methyl]-3,7-dimethyl-1H-indol-6-yl}-4-[(2S)-tetrahydrofuran-2-ylmethoxy]benzamide] | 107 to 109
Cc1c(CN[C@H]2CC[C@](C)(O)CC2)[nH]c2c(C)c(NC(=O)c3ccc(OC[C@@H]4CCCO4)cc3F)ccc12 [Example 102, 2-fluoro-N-(2-{[(trans-4-hydroxy-4-methylcyclohexyl)amino]methyl}-3,7-dimethyl-1H-indol-6-yl)-4-[(2S)-tetrahydrofuran-2-ylmethoxy]benzamide] | 177 to 178
Cc1c(NC(=O)c2ccc(OCC3CC3)cc2)ccc2[nH]c(CNCC(C)(C)O)cc12 [Example 44, 4-(cyclopropylmethoxy)-N-(2-{[(2-hydroxy-2-methylpropyl)amino]methyl}-4-methyl-1H-indol-5-yl)benzamide] | 186
Cc1c(NC(=O)c2ccc(C#CC3(O)CCC3)cc2)ccc2cc(CNCC(C)C)n(C)c12 [Example 92, 4-[(1-hydroxycyclobutyl)ethynyl]-N-(2-{[(2-methylpropyl)amino]methyl}-1,7-dimethyl-1H-indol-6-yl)benzamide] | 222 to 223
Cc1c(NC(=O)c2ccc(OCC3CC3)cc2)ccc2[nH]c(CNC3CCCC3)cc12 [Example 45, N-{2-[(cyclopentylamino)methyl]-4-methyl-1H-indol-5-yl}-4-(cyclopropylmethoxy)benzamide] | 207 to 208
Cc1c(NC(=O)c2ccc(OC[C@@H]3CCCO3)cc2)ccc2cc(CNCC(C)C)n(C)c12 [Example 85, N-(1,7-dimethyl-2-{[(2-methylpropyl)amino]methyl}-1H-indol-6-yl)-4-[(2S)-tetrahydrofuran-2-ylmethoxy]benzamide] | 183
Cn1c(CNCC(C)(C)O)cc2cc(NC(=O)c3ccc(OC[C@@H]4CCCO4)cc3F)ccc21 [Example 27, 2-fluoro-N-(2-{[(2-hydroxy-2-methylpropyl)amino]methyl}-1-methyl-1H-indol-5-yl)-4-[(2S)-tetrahydrofuran-2-ylmethoxy]benzamide] | 159 to 160
Cc1c(CNCC(C)(C)C)[nH]c2c(C)c(NC(=O)c3ccc(OC[C@@H]4CCCO4)cc3)ccc12 [Example 98, N-(2-{[(2,2-dimethylpropyl)amino]methyl}-3,7-dimethyl-1H-indol-6-yl)-4-[(2S)-tetrahydrofuran-2-ylmethoxy]benzamide] | 178 to 179
Cc1c(NC(=O)c2ccc(OC[C@@H]3CCCO3)cc2)ccc2cc(CNCC(C)C)[nH]c12 [Example 72, N-(7-methyl-2-{[(2-methylpropyl)amino]methyl}-1H-indol-6-yl)-4-[(2S)-tetrahydrofuran-2-ylmethoxy]benzamide] | 159
Cc1c(NC(=O)c2ccc(OC[C@@H]3CCCO3)cc2F)ccc2c1cc(CNCC1CCOCC1)n2C [Example 62, N-(1,4-dimethyl-2-{[(tetrahydro-2H-pyran-4-ylmethyl)amino]methyl}-1H-indol-5-yl)-2-fluoro-4-[(2S)-tetrahydrofuran-2-ylmethoxy]benzamide] | 149
Cc1c(NC(=O)c2ccc(OC[C@@H]3CCCO3)cc2)ccc2cc(CNCC(C)(C)O)n(C)c12 [Example 82, N-(2-{[(2-hydroxy-2-methylpropyl)amino]methyl}-1,7-dimethyl-1H-indol-6-yl)-4-[(2S)-tetrahydrofuran-2-ylmethoxy]benzamide] | 197 to 200
Cc1c(CNCC2CCOCC2)n(C)c2c(C)c(NC(=O)c3ccc(OC[C@@H]4CCCO4)cc3)ccc12 [Example 107, 4-[(2S)-tetrahydrofuran-2-ylmethoxy]-N-(1,3,7-trimethyl-2-{[(tetrahydro-2H-pyran-4-ylmethyl)amino]methyl}-1H-indol-6-yl)benzamide] | 173 to 174
Cc1c(NC(=O)c2ccc(C#CC3(O)CC3)cc2)ccc2cc(CNCC(C)(C)C)n(C)c12 [Example 91, N-(2-{[(2,2-dimethylpropyl)amino]methyl}-1,7-dimethyl-1H-indol-6-yl)-4-[(1-hydroxycyclopropyl)ethynyl]benzamide] | 182 to 183
Cc1c(CNCC2CCOCC2)[nH]c2c(C)c(NC(=O)c3ccc(OC[C@@H]4CCCO4)cc3)ccc12 [Example 97, N-(3,7-dimethyl-2-{[(tetrahydro-2H-pyran-4-ylmethyl)amino]methyl}-1H-indol-6-yl)-4-[(2S)-tetrahydrofuran-2-ylmethoxy]benzamide] | 184 to 185
Cc1c(CNCC(C)C)n(C)c2c(C)c(NC(=O)c3ccc(OC[C@@H]4CCCO4)cc3)ccc12 [Example 106, N-(2-{[(2-methylpropyl)amino]methyl}-1,3,7-trimethyl-1H-indol-6-yl)-4-[(2S)-tetrahydrofuran-2-ylmethoxy]benzamide] | 171 to 172
Cc1c(CNCC(C)C)[nH]c2c(F)c(NC(=O)c3ccc(OC[C@@H]4CCCO4)cc3)ccc12 [Example 104, N-(7-fluoro-2-{[(2-methylpropyl)amino]methyl}-3-methyl-1H-indol-6-yl)-4-[(2S)-tetrahydrofuran-2-ylmethoxy]benzamide] | 134 to 135
Cc1c(NC(=O)c2ccc(OC[C@@H]3CCCO3)cc2)ccc2[nH]c(CNCC3CCOCC3)cc12 [Example 47, N-(4-methyl-2-{[(tetrahydro-2H-pyran-4-ylmethyl)amino]methyl}-1H-indol-5-yl)-4-[(2S)-tetrahydrofuran-2-ylmethoxy]benzamide] | 166 to 167

Results, then the compound that gave them:

melting point [°C] | Compound
160 | O=C(Nc1ccc2[nH]c(CNCC3CCOCC3)cc2c1)c1ccc(OCC2CC2)cc1 [Example 3, 4-(cyclopropylmethoxy)-N-(2-{[(tetrahydro-2H-pyran-4-ylmethyl)amino]methyl}-1H-indol-5-yl)benzamide]
183 to 184 | Cc1c(CN[C@H]2CC[C@](C)(O)CC2)n(C)c2c(C)c(NC(=O)c3ccc(OC[C@@H]4CCCO4)cc3)ccc12 [Example 109, N-(2-{[(trans-4-hydroxy-4-methylcyclohexyl)amino]methyl}-1,3,7-trimethyl-1H-indol-6-yl)-4-[(2S)-tetrahydrofuran-2-ylmethoxy]benzamide]
139 | Cn1c(CNC[C@@H]2CCCO2)cc2cc(NC(=O)c3ccc(OCC4CC4)cc3)ccc21 [Example 11, 4-(cyclopropylmethoxy)-N-[1-methyl-2-({[(2S)-tetrahydrofuran-2-ylmethyl]amino}methyl)-1H-indol-5-yl]benzamide]
150 to 151 | Cn1c(CNCC(C)(C)C)cc2cc(NC(=O)c3ccc(OC[C@@H]4CCCO4)cc3)ccc21 (as salt: acetate) [Example 15, N-(2-{[(2,2-dimethylpropyl)amino]methyl}-1-methyl-1H-indol-5-yl)-4-[(2S)-tetrahydrofuran-2-ylmethoxy]benzamide acetate]
162 to 163 | Cn1c(CNCC(C)(C)C)cc2cc(NC(=O)c3ccc(OCC4CCOC4)cc3)ccc21 (centres unmarked) [Example 22, N-(2-{[(2,2-dimethylpropyl)amino]methyl}-1-methyl-1H-indol-5-yl)-4-(tetrahydrofuran-3-ylmethoxy)benzamide]
196 to 197 | Cn1c(CN[C@H]2CC[C@H](O)CC2)cc2cc(NC(=O)c3ccc(OCC4CC4)cc3)ccc21 [Example 8, 4-(cyclopropylmethoxy)-N-(2-{[(trans-4-hydroxycyclohexyl)amino]methyl}-1-methyl-1H-indol-5-yl)benzamide]
134 to 135 | Cc1c(CN[C@H]2CC[C@](C)(O)CC2)[nH]c2c(C)c(NC(=O)c3ccc(OC[C@@H]4CCCO4)cc3)ccc12 [Example 99, N-(2-{[(trans-4-hydroxy-4-methylcyclohexyl)amino]methyl}-3,7-dimethyl-1H-indol-6-yl)-4-[(2S)-tetrahydrofuran-2-ylmethoxy]benzamide]
166 to 167 | CC1(CNCc2cc3cc(NC(=O)c4ccc(OCC5CC5)cc4)ccc3[nH]2)COC1 [Example 1, 4-(cyclopropylmethoxy)-N-[2-({[(3-methyloxetan-3-yl)methyl]amino}methyl)-1H-indol-5-yl]benzamide]
188 to 189 | Cn1c(CNCC(C)(C)O)cc2cc(NC(=O)c3ccc(OCC4CC4)cc3)ccc21 [Example 5, 4-(cyclopropylmethoxy)-N-(2-{[(2-hydroxy-2-methylpropyl)amino]methyl}-1-methyl-1H-indol-5-yl)benzamide]
278 | Cc1c(NC(=O)c2ccc(OC[C@@H]3CCCO3)cc2)ccc2c1cc(CN[C@H]1CC[C@](C)(O)CC1)n2C.Cl
167 to 168 | Cc1c(NC(=O)c2ccc(OCC3CC3)cc2)ccc2cc(CNCC3CCOCC3)[nH]c12 [Example 66, 4-(cyclopropylmethoxy)-N-(7-methyl-2-{[(tetrahydro-2H-pyran-4-ylmethyl)amino]methyl}-1H-indol-6-yl)benzamide]
181 to 182 | Cn1c(CN[C@H]2CC[C@](C)(O)CC2)cc2cc(NC(=O)c3ccc(OCC4CCOC4)cc3)ccc21 (stereo partly drawn) [Example 24, N-(2-{[(trans-4-hydroxy-4-methylcyclohexyl)amino]methyl}-1-methyl-1H-indol-5-yl)-4-(tetrahydrofuran-3-ylmethoxy)benzamide]
152 to 153 | Cc1c(NC(=O)c2ccc(OC[C@@H]3CCCO3)cc2F)ccc2cc(CN[C@H]3CC[C@](C)(O)CC3)[nH]c12 [Example 77, 2-fluoro-N-(2-{[(trans-4-hydroxy-4-methylcyclohexyl)amino]methyl}-7-methyl-1H-indol-6-yl)-4-[(2S)-tetrahydrofuran-2-ylmethoxy]benzamide]
173 | Cn1c(CNCC(C)(C)C)cc2cc(NC(=O)c3ccc(C#CC4(O)CC4)cc3)ccc21 [Example 31, N-(2-{[(2,2-dimethylpropyl)amino]methyl}-1-methyl-1H-indol-5-yl)-4-[(1-hydroxycyclopropyl)ethynyl]benzamide]
202 to 204 | Cc1c(NC(=O)c2ccc(C#CC3(O)CCC3)cc2)ccc2cc(CNCC3CCOCC3)n(C)c12 [Example 94, N-(1,7-dimethyl-2-{[(tetrahydro-2H-pyran-4-ylmethyl)amino]methyl}-1H-indol-6-yl)-4-[(1-hydroxycyclobutyl)ethynyl]benzamide]
